Reference: patent publication US6858741B2, “Alkyl-dihalogenated phenyl-substituted ketoenols useful as pesticides and herbicides” (Bayer Aktiengesellschaft, priority 1995, dated 2005)

How the values were obtained:
Format in all cases: in vivo
[1] = tested on: green rice leafhopper (Nephotettix cincticeps); experiment: Nephotettix test; conditions: after 6 days; active compound concentration 0.1%; dipped rice seedlings
Protocol: [table] To produce a suitable preparation of active compound, 1 part by weight of active compound is mixed with the stated amount of solvent and the stated amount of emulsifier, and the concentrate is diluted with water to the desired concentration. Rice seedlings (Oryza sativa) are treated by being dipped into the preparation of active compound of the desired concentration and are infested with the green rice leafhopper (Nephotettix cincticeps) while the seedlings are still moist. After the specified period of time, the destruction in % is determined. 100% means that all the leafhoppers have been killed; 0% means that none of the leafhoppers have been killed.

test plants = experiment: Pre-emergence test/greenhouse; conditions: greenhouse, 250 g/ha, rated after three weeks vs untreated control, 0%=no action, 100%=total destruction
Protocol: [table] To produce a suitable preparation of active compound, 1 part by weight of active compound is mixed with the stated amount of solvent, the stated amount of emulsifier is added and the concentrate is diluted with water to the desired concentration. Seeds of the test plants are sown in normal soil and, after 24 hours, watered with the preparation of the active compound. It is expedient to keep constant the amount of water per unit area The concentration of the active compound in the preparation is of no importance, only the amount of active compound applied per unit area being decisive. After three weeks, the degree of damage to the plants is rated in % damage in comparison to the development of the untreated control. The figures denote: • 0%=no action (like untreated control) 100%=total destruction [table]

[2] = tested on: greenhouse red spider mite or two-spotted spider-mite (Tetranychus urticae); experiment: Tetranychus test (OP-resistant/immersion treatment); conditions: after 13 days; active compound concentration 0.1%; immersion treatment of bean plants
Protocol: [table] To produce a suitable preparation of active compound, 1 part by weight of active compound is mixed with the stated amount of solvent and the stated amount of emulsifier, and the concentrate is diluted with water to the desired concentrations. Bean plants (Phaseolus vulgaris) which are severely infested with all development stages of the greenhouse red spider mite or two-spotted spider-mite (Tetranychus urticae) are immersed in a preparation of active compound of the desired concentration. After the specified period of time, the destruction in % is determined. 100% means that all the spider mites have been killed; 0% means that none of the spider mites have been killed.

[3] = tested on: mustard beetle larvae (Phaedon cochleariae); experiment: Phaedon larvae test; conditions: after 7 days; active compound concentration 0.1%; dipped cabbage leaves
Protocol: (§1) [table] To produce a suitable preparation of active compound, 1 part by weight of active compound is mixed with the stated amount of solvent and the stated amount of emulsifier, and the concentrate is diluted with water to the desired concentration. Cabbage leaves (Brassica oleracea) are treated by being dipped into the preparation of the active compound of the desired concentration and are infested with mustard beetle larvae (Phaedon cochleariae) while the leaves are still moist. After the specified period of time, the destruction in % is determined. 100% means that all the beetle larvae have been killed; 0% means that none of the beetle larvae have been killed.

[4] = tested on: caterpillars of the diamond-back moth (Plutella maculipennis); experiment: Plutella test; conditions: after 7 days; active compound concentration 0.1%; dipped cabbage leaves
Protocol: as §1, with “preparation of active compound” for “preparation of the active compound”, “infested with caterpillars of the diamond-back moth (Plutella maculipennis) while the” for “infested with mustard beetle larvae (Phaedon cochleariae) while the”, “all the caterpillars have been” for “all the beetle larvae have been”, “of the caterpillars have been” for “of the beetle larvae have been”

SMILES | destruction [1] [%] | degree of damage, Amaranthus (test plants) [%] | degree of damage, Beta vulgaris (test plants) [%] | activity (destruction) [2] [%] | destruction [3] [%] | degree of damage, Alopecurus myosuroides (test plants) [%] | degree of damage, Avena fatua (test plants) [%] | degree of damage, Setaria viridis (test plants) [%] | degree of damage, Sinapis arvensis (test plants) [%] | destruction [4] [%]
Cc1cc(Cl)c(C2=C(O)C3(CCCCC3)SC2=O)c(Cl)c1 [Example I-3-a-2] | 100 | 60 | 0 | 100 | 100 | – | – | – | – | –
CCOC(=O)OC1=C(c2c(C)cc(Cl)cc2Cl)C(=O)NC12CCC(C)CC2 (single isomer, unassigned) [Example I-1-c-4] | 100 | – | 50 | 100 | – | 100 | 100 | 100 | 100 | –
COCC(C)C(=O)OC1=C(c2c(C)cc(Cl)cc2Cl)C(=O)NC12CCC(C)CC2 (single isomer, unassigned) [Example I-1-b-13] | – | – | 30 | – | – | 100 | 80 | 100 | 90 | –
Cc1cc(Cl)c(C2=C(OC(=O)OCC(C)C)C3(CCCCC3)SC2=O)c(Cl)c1 [Example I-3-c-1] | – | 70 | 0 | 100 | – | – | – | – | – | –
Cc1cc(Cl)cc(Cl)c1C1=C(OC(=O)c2ccc(Cl)cc2)C2(CCC(C)CC2)NC1=O (single isomer, unassigned) [Example I-1-b-12] | – | – | 20 | – | – | 100 | 80 | 100 | 95 | –
Cc1cc(Cl)cc(Cl)c1C1=C(O)C2(CCC(C)CC2)NC1=O (single isomer, unassigned) [Example I-1-a-4] | 100 | – | 0 | – | – | 100 | 100 | 100 | 95 | 100
CCOCC(=O)OC1=C(c2c(C)cc(Cl)cc2Cl)C(=O)NC12CCCC(C)C2 (single isomer, unassigned) [Example I-1-b-4] | – | – | 0 | – | – | 95 | 80 | 100 | 80 | –
CCOC(=O)OC1=C(c2c(Cl)cc(C)cc2Cl)C(=O)NC12CCC(C)CC2 (single isomer, unassigned) [Example I-1-c-6] | – | – | – | – | – | 100 | 100 | 100 | 95 | –
Cc1cc(Cl)c(C2=C(O)C3(CCCCC3)NC2=O)c(Cl)c1 [Example I-1-a-9] | 100 | – | – | – | 100 | – | – | – | – | –
Cc1cc(Cl)cc(Cl)c1C1=C(OC(=O)C(C)C)C2(CCC(C)CC2)NC1=O (single isomer, unassigned) [Example I-1-b-11] | – | – | 30 | – | – | 95 | 40 | 100 | 90 | –
CCC1(C)SC(=O)C(c2c(C)cc(Cl)cc2Cl)=C1O (centres unmarked) [Example I-3-a-1] | – | – | – | – | 100 | – | – | – | – | 100
CCOC(=O)OC1=C(c2c(C)cc(Cl)cc2Cl)C(=O)NC12CCCC(C)C2 (single isomer, unassigned) [Example I-1-c-2] | – | – | – | – | – | – | – | – | – | 100
Cc1cc(Cl)c(C2=C(OC(=O)C(C)(C)C)C3(CCCCC3)SC2=O)c(Cl)c1 [Example I-3-b-1] | 100 | – | – | 100 | – | – | – | – | – | 100
CCOC(=O)OC1=C(c2c(Cl)cc(C)cc2Cl)C(=O)NC12CCCC(C)C2 (single isomer, unassigned) [Example I-1-c-7] | – | – | 0 | – | – | 100 | 80 | 100 | 80 | –
Cc1cc(Cl)cc(Cl)c1C1=C(O)C2(CCCCC2)SC1=O [Example I-3-a-3] | – | – | – | – | 100 | – | – | – | – | 100
Cc1cc(Cl)cc(Cl)c1C1=C(OC(=O)C(C)C)C2(CCCCC2)NC1=O [Example I-1-b-8] | – | – | 0 | – | – | 95 | 50 | 100 | 100 | –
Cc1cc(Cl)c(C2=C(O)C3(CCOCC3)NC2=O)c(Cl)c1 [Example I-1-a-10] | – | – | – | 100 | 100 | – | – | – | – | –
CC(=O)OC1=C(c2c(C)cc(Cl)cc2Cl)C(=O)NC12CCC(C)CC2 (single isomer, unassigned) [Example I-1-b-10] | 100 | – | 20 | 100 | – | 100 | 100 | 100 | 100 | –
Cc1cc(Cl)cc(Cl)c1C1=C(O)C2(CCCCC2)NC1=O [Example I-1-a-3] | 100 | – | 0 | – | – | 100 | – | 100 | 80 | 100
Cc1cc(Cl)cc(Cl)c1C1=C(OC(=O)OCC(C)C)C2(CCC(C)CC2)NC1=O (single isomer, unassigned) [Example I-1-c-13] | 100 | – | – | – | – | – | – | – | – | –
Cc1cc(Cl)c(-c2c(O)c(C)c(C3CCCC3)oc2=O)c(Cl)c1 [I-5-a-7] | – | – | 0 | – | – | 80 | – | – | 95 | –
Cc1cc(Cl)c(C2=C(O)C3(CCCC(C)C3)NC2=O)c(Cl)c1 (single isomer, unassigned) [Example I-1-a-8] | 100 | – | – | – | 100 | 100 | 40 | 100 | 100 | –
Cc1cc(Cl)c(C2=C(O)C3(CCC(C)CC3)NC2=O)c(Cl)c1 (single isomer, unassigned) [Example I-1-a-7] | 100 | – | – | 100 | – | 100 | 90 | 100 | 100 | 100
Cc1cc(Cl)cc(Cl)c1C1=C(O)C2(CCCC(C)C2)NC1=O (single isomer, unassigned) [Example I-1-a-2] | 100 | – | 0 | – | 100 | 100 | 90 | 100 | – | –
Cc1cc(Cl)c(C2=C(O)C(C)(C(C)C)NC2=O)c(Cl)c1 (centres unmarked) [Example I-1-a-11] | 100 | – | – | – | 100 | – | – | – | – | –
Cc1cc(Cl)c(C2=C(OC(=O)C(C)C)C3(CCCC(C)C3)NC2=O)c(Cl)c1 (single isomer, unassigned) [Example I-1-b-20] | – | – | 30 | – | – | 95 | – | 90 | 80 | –
CC(=O)OC1=C(c2c(C)cc(Cl)cc2Cl)C(=O)NC12CCCC(C)C2 (single isomer, unassigned) [Example I-1-b-2] | – | – | 0 | – | – | 100 | 80 | 100 | 70 | 100
CCOC(=O)OC1=C(c2c(C)cc(Cl)cc2Cl)C(=O)NC12CCCCC2 [Example I-1-c-3] | 100 | – | 30 | – | – | 80 | 80 | 100 | 100 | –
